# Experimental data as given in patent publication US20250269043A1, “TARGETED BIFUNCTIONAL DEGRADERS” (YALE UNIVERSITY, priority 2019, published 2025).
# Where “and” joins values, the source holds several entries; their conditions need not be identical. Equal entries are not always repeated.
# Experiments:
# HepG2 cells [1] = assay: DNP-GN3-mediated endocytosis of fluorescently labeled α-DNP antibody by adherent HepG2 cells; format: cell-based, human; conditions: six and twelve hours; FIG. 87A-87B
# [2] = Tolerability in mice (body weight, serum AST and ALT); format: in vivo
# Experimental: FIGS. 93A-93C illustrate that DNP-GN3 and DNP-OH3 are not toxic to mice at all tested concentrations. FIG. 93A: mouse body weight following treatment with DNP-GN3 or DNP-OH3. Statistical differences were analyzed by T test. FIG. 93B: levels of aspartate transaminase (AST) in treated mice. Dashed lines represent the normal range. FIG. 93C: levels of alanine transaminase (ALT) in treated mice. Dashed lines represent the normal range.
# [3] = target: T1, ASGPR on the surface of HepG2 cells and α-DNP antibody (Homo sapiens, UniProt P07306+P07307); assay: DNP-GN3-mediated ternary complex formation: association of fluorescently labeled α-DNP antibody with HepG2 cells in suspension; format: cell-based; conditions: for concentration of DNP-GN3 eliciting half-maximal fluorescence association: FIG. 86A
# T1 sequence (P07306 1-291): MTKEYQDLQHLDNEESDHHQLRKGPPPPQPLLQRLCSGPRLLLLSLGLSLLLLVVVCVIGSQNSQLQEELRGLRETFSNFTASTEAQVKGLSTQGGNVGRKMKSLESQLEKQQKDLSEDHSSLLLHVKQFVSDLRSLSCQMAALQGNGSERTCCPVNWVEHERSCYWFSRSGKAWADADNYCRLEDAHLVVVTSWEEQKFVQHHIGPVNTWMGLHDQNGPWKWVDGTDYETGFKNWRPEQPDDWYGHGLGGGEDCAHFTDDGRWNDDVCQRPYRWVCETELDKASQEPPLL
# T1 sequence (P07307 1-311): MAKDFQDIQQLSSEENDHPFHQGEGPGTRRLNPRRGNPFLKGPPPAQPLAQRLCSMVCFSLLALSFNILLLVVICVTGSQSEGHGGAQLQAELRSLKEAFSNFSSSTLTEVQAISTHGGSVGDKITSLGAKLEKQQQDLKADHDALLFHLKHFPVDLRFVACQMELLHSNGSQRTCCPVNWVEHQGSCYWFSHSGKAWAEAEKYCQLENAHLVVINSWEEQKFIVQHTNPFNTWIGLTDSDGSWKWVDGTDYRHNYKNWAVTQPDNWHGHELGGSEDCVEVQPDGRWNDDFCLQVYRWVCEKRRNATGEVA
# Text: It was investigated whether DNP-GN3 could mediate the formation of a ternary complex between a fluorescently labeled α-DNP antibody and ASGPR on the surface of immortalized human hepatocyte HepG2 cells in suspension. […] The observed bell-shaped response to DNP-GN3 concentration is consistent with the prozone effect commonly observed in systems wherein a ternary complex is formed.
# HepG2 cells [4] = assay: MIF-GN3-mediated endocytosis of Alexa 488-labeled human MIF by HepG2 cells; conditions: FIG. 131
# Experimental: Human MIF protein was fluorescently labeled with Alexa 488 NHS ester, then incubated with HepG2 cells in the presence of varying levels of MIF-GN3.
# The ability of MIF-GN3 to mediate MIF endocytosis over a wide range of target protein concentrations was assessed.
# Next, inhibitors of various endocytic pathways were utilized to determine if MIF-GN3 mediates MIF endocytosis in a manner consistent with ASGPR (FIG. 132).
# [5] = Pharmacokinetics of MIF-GN3 in male nude mice; format: in vivo; conditions: one mpk dose
# Text: The ability of MIF-GN3 to mediate the depletion of injected human MIF from serum in mice was studied. First, the pharmacokinetics of the bifunctional molecule were investigated.
# mouse MIF = target: T2, mouse MIF (Mus musculus, UniProt P34884); assay: Depletion of endogenous mouse MIF in vivo; set-up: species or system mice; conditions: single dose of 10 mpk; FIG. 137
# T2 construct: mediate the depletion of endogenous mouse MIF in vivo; from tissue; host or cells: mouse serum, in vivo
# Experimental: In order to confirm that mice injected with one or ten mpk MIF-GN3 had received the injection, and that the observed stability of MIF concentrations in MIF-GN3 treated mice was not the result of injection error, 200 μg of α-DNP antibody was coinjected with the MIF protein in this experiment. […] An investigation of the ability of MIF-GN3 to mediate the depletion of endogenous mouse MIF in vivo was next undertaken. Mice were treated with either PBS or 10 mpk of MIF-GN3. […] One possible explanation for this finding is that MIF protein may be synthesized rapidly, and any increase in degradation mediated by MIF-GN3 may not be of a large enough magnitude to impact the protein's level in serum.
# HepG2 cells [6] = assay: Colocalization of endocytosed MIF protein in HepG2 cells; format: cell-based, human; conditions: MIF 100 nM, MIF-GN3 200 nM; FIG. 133
# Experimental: FIG. 133 illustrates that cells treated with MIF-GN3 and exogenous MIF accumulate MIF punctate in cells. […] MIF was present at a concentration of 100 nM, and MIF-GN3 was present at a concentration of 200 nM.
# In order to investigate the subcellular localization of endocytosed MIF protein, colocalization studies were performed in HepG2 cells. After 12 hours of MIF-GN mediated endocytosis, several punctae displaying MIF-derived fluorescence were present in each cell.
Structure (SMILES),intracellular fluorescence of adherent HepG2 cells (HepG2 cells [1]),"differences in body weight or serum liver enzyme levels between control and treatment groups ([2]; doses up to 100 mpk, FIGS. 93A-93C)",well-tolerated dose ([2]; mice) [mpk],concentration of maximal ternary complex formation ([3]; DNP-GN3),concentration of DNP-GN3 eliciting half-maximal fluorescence association ([3]; higher of the two half-maximal concentrations of the bell-shaped response (prozone effect)) [µM],concentration of DNP-GN3 eliciting half-maximal fluorescence association ([3]; lower of the two half-maximal concentrations of the bell-shaped response) [µM],"fluorescence of cells relative to cells not treated with bifunctional molecule (HepG2 cells [4]; MIF protein 10 nM, 200 nM MIF-GN3) [fold]","MIF uptake at high concentration compared to lower concentrations (HepG2 cells [4]; MIF protein 100 nM, MIF-GN3 5.00 μM)",half-life in serum [5] [min],time of maximum plasma concentration [5] [min],mouse MIF concentrations in serum (mouse MIF),colocalization of MIF signal with LAMP2 (HepG2 cells [6])
CC(=O)NC1C(OCCOCCOCCNC(=O)CCOCC(COCCC(=O)NCCOCCOCCOC2OC(CO)C(O)C(O)C2NC(C)=O)(COCCC(=O)NCCOCCOCCOC2OC(CO)C(O)C(O)C2NC(C)=O)NC(=O)CNC(=O)COCCOCCOCCNc2ccc([N+](=O)[O-])cc2[N+](=O)[O-])OC(CO)C(O)C1O (stereo not drawn) [DNP-GN3],dependent on the concentration of both DNP-GN3 and α-DNP antibody,no significant differences,≤ 100,20 nM and 40 nM,0.12,0.0074,,,,,,
CC(=O)N[C@H]1[C@H](OCCOCCOCCNC(=O)CCOCC(COCCC(=O)NCCOCCOCCO[C@@H]2O[C@H](CO)[C@H](O)[C@H](O)[C@H]2NC(C)=O)(COCCC(=O)NCCOCCOCCO[C@@H]2O[C@H](CO)[C@H](O)[C@H](O)[C@H]2NC(C)=O)NC(=O)CNC(=O)CCCOc2ccc3nc(-c4cn(-c5ccc(O)c(F)c5)nn4)ccc3c2)O[C@H](CO)[C@H](O)[C@@H]1O [MIF-GN3],,,,,,,4,slight decrease in MIF uptake,25.8,15,No significant decrease,strong colocalization
